According to patent US10308650B2, “Pesticidally active tetracyclic derivatives with sulfur containing substituents” (Syngenta Participations AG, priority 2014, dated 2019):

What was measured:
Assay type in all cases: in vivo
[1] = tested on: Frankliniella occidentalis (Western Flower Thrips); experiment: Activity against Frankliniella occidentalis: feeding/contact activity; conditions: foliar, 168 h, application rate of 200 ppm, sunflower leaf discs, population of mixed ages, 7 days after infestation
Protocol: Example B4: Activity Against Frankliniella occidentalis (Western Flower Thrips): Feeding/Contact Activity
(§1) Sunflower leaf discs were placed on agar in 24-well microtiter plates and sprayed with aqueous test solutions prepared from 10,000 DMSO stock solutions. After drying the leaf discs were infested with a Frankliniella population of mixed ages. The samples were assessed for mortality 7 days after infestation.

[2] = tested on: Bemisia tabaci (Cotton White Fly); experiment: Activity against Bemisia tabaci: feeding/contact activity; conditions: foliar, 144 h, application rate of 200 ppm, cotton leaf discs, adult white flies, 6 days after incubation
Protocol: Example B1: Activity Against Bemisia tabaci (Cotton White Fly): Feeding/Contact Activity
Cotton leaf discs were placed on agar in 24-well microtiter plates and sprayed with aqueous test solutions prepared from 10,000 ppm DMSO stock solutions. After drying the leaf discs were infested with adult white flies. The samples were checked for mortality 6 days after incubation.

[3] = tested on: Aedes aegypti (Yellow Fever Mosquito); experiment: Activity against Aedes aegypti; conditions: 200 ppm in ethanol, dry deposit in 12 well plates, adult females, after 48 h and/or 24 h
Protocol: Example B13: Activity Against Aedes aegypti (Yellow Fever Mosquito)
Test solutions, at an application rate of 200 ppm in ethanol, were applied to 12 well tissue culture plates. Once the deposits were dry, five, two to five day old adult female Aedes aegypti were added to each well, and sustained with a 10% sucrose solution in a cotton wool plug. Assessment of knockdown was made one hour after introduction, and mortality was assessed at 24 and 48 hours after introduction.

[4] = tested on: Spodoptera littoralis (Egyptian Cotton Leaf Worm); experiment: Activity against Spodoptera littoralis (cotton leaf discs, spray); conditions: foliar, 72 h, application rate of 200 ppm, cotton leaf discs, L1 larvae, 3 days after infestation, read-out: control (mortality, anti-feeding effect, growth inhibition)
Protocol: Example B9: Activity Against Spodoptera littoralis (Egyptian Cotton Leaf Worm)
Cotton leaf discs were placed onto agar in 24-well microtiter plates and sprayed with aqueous test solutions prepared from 10,000 ppm DMSO stock solutions. After drying the leaf discs were infested with five L1 larvae. The samples were assessed for mortality, anti-feeding effect, and growth inhibition in comparison to untreated samples 3 days after infestation. Control of Spodoptera littoralis by a test sample is given when at least one of the categories mortality, anti-feedant effect, and growth inhibition is higher than the untreated sample.

[5] = tested on: Euschistus heros (Neotropical Brown Stink Bug); experiment: Activity against Euschistus heros; conditions: 120 h, application rate of 200 ppm, soybean leaves, N2 nymphs, 5 days after infestation, read-out: effect in at least one of the two categories (mortality or growth inhibition)
Protocol: Example B3: Activity Against Euschistus heros (Neotropical Brown Stink Bug)
Soybean leaves on agar in 24-well microtiter plates were sprayed with aqueous test solutions prepared from 10,000 ppm DMSO stock solutions. After drying the leaves were infested with N2 nymphs. The samples were assessed for mortality and growth inhibition in comparison to untreated samples 5 days after infestation.

[6] = tested on: Myzus persicae (Green Peach Aphid); experiment: Activity against Myzus persicae: feeding/contact activity; conditions: foliar, 144 h, application rate of 200 ppm, sunflower leaf discs, aphid population of mixed ages, 6 days after infestation, read-out: mortality
Protocol: Example B5: Activity Against Myzus persicae (Green Peach Aphid): Feeding/Contact Activity
Sunflower leaf discs were placed onto agar in a 24-well microtiter plate and sprayed with aqueous test solutions prepared from 10,000 ppm DMSO stock solutions. After drying, the leaf discs were infested with an aphid population of mixed ages. The samples were assessed for mortality 6 days after infestation.

[7] = tested on: Plutella xylostella (Diamond Back Moth); experiment: Activity against Plutella xylostella; conditions: 120 h, application rate of 200 ppm, artificial diet, L2 larvae, 5 days after infestation, read-out: effect in at least one of the two categories (mortality or growth inhibition)
Protocol: Example B8: Activity Against Plutella xylostella (Diamond Back Moth)
(§2) 24-well microtiter plates with artificial diet were treated with aqueous test solutions prepared from 10,000 ppm DMSO stock solutions by pipetting. After drying, the plates were infested with L2 larvae (10 to 15 per well). The samples were assessed for mortality and growth inhibition in comparison to untreated samples 5 days after infestation.

[8] = tested on: Myzus persicae (Green Peach Aphid); experiment: Activity against Myzus persicae: systemic activity; conditions: 144 h, test rate of 24 ppm, roots of infested pea seedlings in test solution, 6 days, read-out: mortality
Protocol: Example B6: Activity Against Myzus persicae (Green Peach Aphid). Systemic Activity
Roots of pea seedlings infested with an aphid population of mixed ages were placed directly into aqueous test solutions prepared from 10,000 DMSO stock solutions. The samples were assessed for mortality 6 days after placing seedlings into test solutions.

[9] = tested on: Thrips tabaci (Onion Thrips); experiment: Activity against Thrips tabaci: feeding/contact activity; conditions: foliar, 144 h, application rate of 200 ppm, sunflower leaf discs, thrips population of mixed ages, 6 days after infestation
Protocol: Example B12: Activity Against Thrips tabaci (Onion Thrips) Feeding/Contact Activity
as §1, with “10,000 ppm” for “10,000”, “thrips” for “Frankliniella”, “6” for “7”

[10] = tested on: Diabrotica balteata (Corn Root Worm); experiment: Activity against Diabrotica balteata; conditions: 96 h, application rate of 200 ppm, maize sprouts, L2 larvae, 4 days after infestation, read-out: effect in at least one of the two categories (mortality or growth inhibition)
Protocol: Example B2: Activity Against Diabrotica balteata (Corn Root Worm)
as §2, with “Maize sprouts placed onto an agar layer in 24-well” for “24-well”, “plates” for “plates with artificial diet”, “spraying.” for “pipetting.”, “(6” for “(10”, “10” for “15”, “4” for “5”

[11] = tested on: Spodoptera littoralis (Egyptian Cotton Leaf Worm); experiment: Activity against Spodoptera littoralis (lettuce, uptake by the roots from agar); conditions: 144 h, test rate of 12.5 ppm, lettuce grown on treated agar, Spodoptera eggs, 6 days after infestation, read-out: effect in at least one of the three categories (mortality, anti-feeding, or growth inhibition)
Text: Example B10: Activity Against Spodoptera littoralis (Egyptian Cotton Leaf Worm)
Test compounds were applied by pipette from 10,000 ppm DMSO stock solutions into 24-well plates and mixed with agar. Lettuce seeds were placed onto the agar and the multi well plate was closed by another plate which contained also agar. After 7 days the compound was absorbed by the roots and the lettuce grew into the lid plate. The lettuce leaves were then cut off into the lid plate. Spodoptera eggs were pipetted through a plastic stencil onto a humid gel blotting paper and the lid plate was closed with it. The samples were assessed for mortality, anti-feedant effect and growth inhibition in comparison to untreated samples 6 days after infestation.

CCS(=O)(=O)c1cc2c(cc1-c1nc3cc(C(F)(F)F)ncc3n1C)nc(C(F)(F)F)n2C [Compound A9, 2-[6-ethylsulfonyl-1-methyl-2-(trifluoromethyl)benzimidazol-5-yl]-3-methyl-6-(trifluoromethyl)imidazo[4,5-c]pyridine]
≥ 80%: mortality at 200 ppm [1] | mortality at 200 ppm [2] | pest or weed control at 200 ppm [3] | mortality at 200 ppm [4] | percent effect (mortality or growth inhibition) at 200 ppm [5] | mortality at 200 ppm [6] | percent effect (mortality or growth inhibition) at 200 ppm [7] | mortality at 24 ppm [8] | mortality at 200 ppm [9] | percent effect (mortality or growth inhibition) at 200 ppm [10] | percent effect (mortality, anti-feeding or growth inhibition) at 12.5 ppm [11]

CCS(=O)(=O)c1cc2nc(C(F)(F)F)n(C)c2nc1-c1nc2cc(C(F)(F)F)ncc2n1C [Compound A32, 6-ethylsulfonyl-3-methyl-5-[3-methyl-6-(trifluoromethyl)imidazo[4,5-c]pyridin-2-yl]-2-(trifluoromethyl)imidazo[4,5-b]pyridine]
≥ 80%: mortality at 200 ppm [2] | pest or weed control at 200 ppm [3] | mortality at 200 ppm [4] | percent effect (mortality or growth inhibition) at 200 ppm [5] | mortality at 200 ppm [6] | percent effect (mortality or growth inhibition) at 200 ppm [7] | mortality at 24 ppm [8] | mortality at 200 ppm [9] | percent effect (mortality or growth inhibition) at 200 ppm [10] | percent effect (mortality, anti-feeding or growth inhibition) at 12.5 ppm [11]

CCS(=O)(=O)c1cc2c(nc1-c1nc3cc(C(F)(F)F)ncc3n1C)CC(C)(C)O2 [Compound A59, 6-ethylsulfonyl-2,2-dimethyl-5-[3-methyl-6-(trifluoromethyl)imidazo[4,5-c]pyridin-2-yl]-3H-furo[3,2-b]pyridine]
≥ 80%: mortality at 200 ppm [2] | mortality at 200 ppm [4] | percent effect (mortality or growth inhibition) at 200 ppm [5] | mortality at 200 ppm [6] | percent effect (mortality or growth inhibition) at 200 ppm [7] | mortality at 24 ppm [8] | mortality at 200 ppm [9] | percent effect (mortality or growth inhibition) at 200 ppm [10] | percent effect (mortality, anti-feeding or growth inhibition) at 12.5 ppm [11]
